In patent US7829332B2, “Purines are self-renewal signals for neural stem cells, and purine receptor antagonists promote neuronal and glial differentiation therefrom” (Cornell Research Foundation, Inc., priority 2004, dated 2010):

Columns and labels:
Format in all cases: cell-based, mouse
[1] = tested on: neural progenitor cells; assay: Calcium imaging (fluo-4/am) of Ca2+i responses in 1-2 day cultures
Description: Neuronal cultures were prepared from E16 mice and maintained as earlier described (Nedergaard, M., Science 263:1768-1771 (1994), which is hereby incorporated by reference in its entirety). Cytosine arabinoside (20 μM) was added at 48 hr to eliminate proliferating cells. Neural progenitor cells were isolated from E13 mice as previously described (Morshead et al., Neuron 13:1071-82 (1994); Reynolds et al., Science 255:1707-10 (1992), which are hereby incorporated by reference in their entirety). The forebrains were collected in a Ca/Mg-free Hank's buffered saline solution (HBSS) and dissociated in 0.25% trypsin. The cells were resuspended at 4×10^6 cells/ml in DMEM/F12/N2 containing 10 ng/ml bFGF and 10 ng/ml EGF (Sigma, St. Louis, Mo.). The cells were plated at 4 ml/dish into 100 mm suspension culture plates and incubated at 37° C. in 5% CO2. The cells were passaged 2 to 3 times before use.
To test the idea that purinergic signaling is restricted to undifferentiated neural precursor cells, Ca^2+ responses to ATP were first examined as a function of time after plating either neural stem cells or differentiated neurons. Cultured mouse cortical neurons in near-pure neuronal cultures were loaded with fluo-4/am and exposed to either ATP (100 μM) or K^+ (60 mM). […] The responses to ATP fell by day 3 and were absent 9 days after plating. […] By 30 hours after plating, MAP2-defined neurons expressed substantially less P2Y receptor-immunoreactivity than did neighboring, MAP2^− cells (FIG. 1C). By 5 days, P2Y-immunoreactivity was restricted to GFAP^+ astrocytes.
ATP-induced Ca^2+i increments were inhibited by both suramin (100 μM) and reactive blue (RB; 30 μM), two mechanistically-unrelated inhibitors of purinergic signaling (FIG. 1D).

[2] = tested on: neural stem cells; assay: BrdU incorporation assay (mitotic index); conditions: 4 hrs incubation
Description: (§1) For the BrdU incorporation assay, the cultures were incubated for 4 hrs in BrdU (Sigma, 10 μg/ml, 4 hrs), fixed and stained with rat monoclonal anti-BrdU (MAS250C, Harlan Sera-lab, Loughborough, UK; 1:200) and Cy3-conjugated goat anti-rat antibodies (Jackson ImmunoResearch, 1:300). Nuclei were visualized by Sytox (Molecular Probes, Inc.), and the mitotic index was calculated as the ratio of BrdU/Sytox positive nuclei. Limiting dilution analysis was performed as previously described (Keyoung et al., Nature Biotechnology 19:843-850 (2001); Uchida et al., Proc. Natl. Acad. Sci. 97:14720-14725 (2000), which are hereby incorporated by reference in their entirety).
Purinergic signaling has long-term effects on proliferation of numerous cell types, including rapidly replicating transformed cell lines (Burnstock, G., Arterioscler Thromb Vasc Biol 22:364-73 (2002); Michoud et al., Am J Respir Cell Mol Biol 27:732-8 (2002); Sauer et al., J Cell Sci 115:3265-73 (2002); Tu et al., Br J Pharmacol 129:1481-9 (2000), which are hereby incorporated by reference in their entirety). To better define the mitogenic effects of P2Y on neural progenitor cells, the mitogenic effects of ATP, its analogs, and its dephosphorylated metabolites were compared. To this end, BrdU incorporation by neural stem cells was quantified after 4 hrs incubation in each treatment.

[3] = tested on: neural progenitors; assay: Limiting dilution analysis of dissociated neurospheres; conditions: for minimum density at which cells remain viable and expand: low density cultures
Description: as §1
To assess the requirement of P2Y signaling in self-renewal, neurospheres were dissociated to low density cultures and limiting dilution analysis performed, in the presence or absence of either suramin or RB. […] Thus, purinergic receptor activation was required not only for continued proliferation of neural progenitors, but also for survival at low plating densities.

[4] = tested on: neurospheres; assay: Flow cytometry of S-phase fraction and P27 expression; conditions: for P27 expression: suramin 300 μM, RB 40 μM (FIG. 3D); for fraction of cells in S-phase: treated cultures, untreated control 16.4%±1.8%, p<0.001
Description: Cultures were stained for nestin (monoclonal clone Rat 401, IgG1, or rabbit antiserum, Chemicon, Temecula, Calif.; 1:2000), neuronal class III β-tubulin (monoclonal clone TuJ1, IgG2a, Covance, Philadelphia, Pa.; 1:500), MAP-2 (2a+2b) (monoclonal clone AP-20, ascites fluid, Sigma, St. Louis, Mo.; 1:500), Neuronal protein HuC/HuD (monoclonal 16A11, Molecular Probes, Eugene, Oreg.; 15 μg/ml), O4 (monoclonal IgM supernatant; O4 hybridoma, or GFAP (mouse clone GA5, or rabbit antiserum, Sigma; 1:500,), purinergic receptors P2Y1, P2Y2, P2Y4 (polyclonal, Alomone Labs, Jerusalem, Israel, 1:200), p27 (polyclonal, Chemicon, 1:2000), cyclins D1 and E (polyclonal, H-295 and M-20, respectively, Santa Cruz Biotechnology, Santa Cruz, Calif.; 1:100), Secondary antibodies were FITC-conjugated goat anti-mouse IgM (μ-chain specific, Sigma; 1:500), Cy3-conjugated goat-anti-rabbit IgG (H+ L) (1:200), Cy5-conjugated Goat-anti-mouse IgG (H+L) (both from Jackson ImmunoResearch, West Grove, Pa.; 1:100). Nuclei were counter-stained with Sytox Green or propidium iodide (Molecular Probes). P27, cyclin D and cyclin E FACS analyses were performed on an EPICS ELITE ESP flow cytometer/cell sorter (Beckman Coulter), as described (Deptala et al., Int J Oncol 15:861-71 (1999), which is hereby incorporated by reference in its entirety). The analysis of ectonucleotidase activity was adapted from Braun et al., “Expression of the Ecto-ATPase NTPDase2 in the Germinal Zones of the Developing and Adult Rat Brain,” Eur. J. Neurosci. 17:1355-64 (2003), which is hereby incorporated by reference in its entirety. Cryostat sections from paraformaldehyde-perfused animals were utilized. All experiments used either inosine diphosphate (IDP), adenosine diphosphate (ADP), or adenosine triphosphate (ATP) as substrate (1 mM), whereas substrate was omitted from controls.
The inhibition of proliferation afforded by suramin and RB was reversible. The percentage of cells in S-phase recovered by 50% at 8 h and by 80% at 24 hr after wash-out of the drugs.

[5] = tested on: neural spheres; assay: Lineage potential by clonal expansion and immunostaining; conditions: 5 day exposure, then 7 days without inhibitors
Description: Cultures were stained for nestin (monoclonal clone Rat 401, IgG1, or rabbit antiserum, Chemicon, Temecula, Calif.; 1:2000), neuronal class III β-tubulin (monoclonal clone TuJ1, IgG2a, Covance, Philadelphia, Pa.; 1:500), MAP-2 (2a+2b) (monoclonal clone AP-20, ascites fluid, Sigma, St. Louis, Mo.; 1:500), Neuronal protein HuC/HuD (monoclonal 16A11, Molecular Probes, Eugene, Oreg.; 15 μg/ml), O4 (monoclonal IgM supernatant; O4 hybridoma, or GFAP (mouse clone GA5, or rabbit antiserum, Sigma; 1:500,), purinergic receptors P2Y1, P2Y2, P2Y4 (polyclonal, Alomone Labs, Jerusalem, Israel, 1:200), p27 (polyclonal, Chemicon, 1:2000), cyclins D1 and E (polyclonal, H-295 and M-20, respectively, Santa Cruz Biotechnology, Santa Cruz, Calif.; 1:100), Secondary antibodies were FITC-conjugated goat anti-mouse IgM (μ-chain specific, Sigma; 1:500), Cy3-conjugated goat-anti-rabbit IgG (H+ L) (1:200), Cy5-conjugated Goat-anti-mouse IgG (H+L) (both from Jackson ImmunoResearch, West Grove, Pa.; 1:100). Nuclei were counter-stained with Sytox Green or propidium iodide (Molecular Probes). P27, cyclin D and cyclin E FACS analyses were performed on an EPICS ELITE ESP flow cytometer/cell sorter (Beckman Coulter), as described (Deptala et al., Int J Oncol 15:861-71 (1999), which is hereby incorporated by reference in its entirety). […]

Row | Compound | inhibition of ATP-induced Ca2+i increments ([1]; reactive blue 30 μM) | proliferation (BrdU incorporation) [2] | minimum density at which cells remain viable and expand [3] | survival at low plating densities [3] | P27 expression [4] | fraction of cells in S-phase [4] [%] | lineage potential of exposed progenitor cells [5] | inhibition of ATP-induced Ca2+i increments ([1]; suramin 100 μM)
1 | Nc1c(S(=O)(=O)O)cc(Nc2ccc(Nc3nc(Cl)nc(Nc4cccc(S(=O)(=O)O)c4)n3)c(S(=O)(=O)O)c2)c2c1C(=O)c1ccccc1C2=O [RB, reactive blue 2] | inhibited | inhibited proliferation in a dose-dependent manner | increased the minimum density | died by 5 days in vitro | rose more strongly | 5.7±0.3 | neither suramin nor RB restricted the lineage potential | –
2 | Cc1ccc(C(=O)Nc2ccc(S(=O)(=O)O)c3cc(S(=O)(=O)O)cc(S(=O)(=O)O)c23)cc1NC(=O)c1cccc(NC(=O)Nc2cccc(C(=O)Nc3cc(C(=O)Nc4ccc(S(=O)(=O)O)c5cc(S(=O)(=O)O)cc(S(=O)(=O)O)c45)ccc3C)c2)c1 [suramin] | – | inhibited proliferation in a dose-dependent manner | increased the minimum density | died by 5 days in vitro | increase in the tumor suppressor P27 | 8.4±2.3 | neither suramin nor RB restricted the lineage potential | inhibited
